This is an account of results in patent publication US6455582B1, “Sulohydroxamic acids and sulohyroxamates and their use as MEK inhibitors” (Warner-Lambert Company, priority 1999, dated 2002).

This assay deals with GST-MEK / GST-MAPK (p45MEK, p44MAP kinase) cascade. The assay is described as follows: Cascade assay for inhibitors of the MAP kinase pathway (APK). Format: biochemical. Here is the method: Cascade assay for inhibitors of the MAP kinase pathway
Incorporation of ^32P into myelin basic protein (MBP) is assayed in the presence of a glutathione S-transferase fusion protein containing p44MAP kinase (GST-MAPK) and a glutathione S-transferase fusion protein containing p45MEK (GST-MEK). The assay solution contains 20 mM HEPES, pH 7.4, 10 mM MgCl2, 1 mM MnCl2, 1 mM EGTA, 50,μM [γ-^32P]ATP, 10 μg GST-MEK, 0.5 μg GST-MAPK and 40 μg MBP in a final volume of 100 μL. Reactions are stopped after 20 minutes by addition of trichloroacetic acid and filtered through a GF/C filter mat. ^32P retained on the filter mat is determined using a 120S Betaplate. Compounds are assessed at 10 μM for ability to inhibit incorporation of ^32P
To ascertain whether compounds are inhibiting GST-MEK or GST MAPK, two additional protocols are employed. In the first protocol, compounds are added to tubes containing GST-MEK, followed by addition of GST-MAPK, MBP and [γ-^32P]ATP. In the second protocol, compounds are added to tubes containing both GST-MEK and GST-MAPK, followed by MBP and [γ-^32P]ATP.
Compounds that show activity in both protocols are scored as MAPK inhibitors, while compounds showing activity in only the first protocol are scored as MEK inhibitors.

For orientation: IC50 means the concentration at which inhibition is half-maximal. Read a high IC50 as weaker potency. For `O=S(=O)(NOCC1CC1)c1ccc(F)c(F)c1Nc1ccc(I)cc1Cl` [PD 0297447, 2-(2-Chloro-4-iodo-phenylamino)-N-cyclopropylmethoxy-3,4-difluoro-benzenesulfonamide], inhibition was half-maximal at 965 nM (IC50).
